Data set [1] concerns L5178Y. The data set can be described thus: Induction of apoptosis in human MDR1 gene transfected mouse L5178 Y cells assessed as necrosis at 75 ug/mL after 40 mins. It counts as functional.
The subject of data set [2] is L5178Y. Nature of the data set: Induction of apoptosis in human MDR1 gene transfected mouse L5178 Y cells assessed as total apoptosis at 7 ug/mL after 40 mins. It counts as functional.
For data set [3], the target named is T1, ATP-dependent translocase ABCB1 (Homo sapiens, UniProt P08183). The data set can be described thus: Inhibition of P-gp mediated efflux-pump activity in human MDR1 gene transfected mouse L5178 Y cells at 40 ug/mL by rhodamine 123 accumulation test. It counts as cell-based.
The test system of data set [4] is L5178Y. The data set can be described thus: Induction of apoptosis in human MDR1 gene transfected mouse L5178 Y cells assessed as necrosis at 7 ug/mL after 40 mins. It counts as functional.
The subject of data set [5] is L5178Y. Nature of the data set: Induction of apoptosis in human MDR1 gene transfected mouse L5178 Y cells assessed as early apoptosis at 75 ug/mL after 40 mins. It counts as functional.
Data set [6] concerns the target T1, ATP-dependent translocase ABCB1. The data set can be described thus: Inhibition of P-gp mediated efflux-pump activity in human MDR1 gene transfected mouse L5178 Y cells at 4 ug/mL by rhodamine 123 accumulation test. It counts as cell-based.
Data set [7] relates to L5178Y. The data set can be described thus: Induction of apoptosis in human MDR1 gene transfected mouse L5178 Y cells assessed as early apoptosis at 7 ug/mL after 40 mins. It counts as functional.
Data set [8] deals with L5178Y. The data set can be described thus: Induction of apoptosis in human MDR1 gene transfected mouse L5178 Y cells assessed as total apoptosis at 75 ug/mL after 40 mins. It counts as functional.
The nature of data set [9]: Antiproliferative activity against human MDR1 gene transfected mouse L5178 Y cells after 72 hrs. The settings on record: L5178Y, read-out: ID50 (the source's name). It counts as functional.
In data set [10] the test system is L5178Y. Nature of the data set: Induction of apoptosis in human MDR1 gene transfected mouse L5178 Y cells assessed as necrosis at 5 ug/mL after 40 mins. It counts as functional.
The subject of data set [11] is L5178Y. The data set can be described thus: Induction of apoptosis in human MDR1 gene transfected mouse L5178 Y cells assessed as total apoptosis at 5 ug/mL after 40 mins. It counts as functional.
For data set [12], the system named is L5178Y. The data set can be described thus: Induction of apoptosis in human MDR1 gene transfected mouse L5178 Y cells assessed as total apoptosis at 50 ug/mL after 40 mins. It counts as functional.
The test system of data set [13] is L5178Y. Nature of the data set: Induction of apoptosis in human MDR1 gene transfected mouse L5178 Y cells assessed as early apoptosis at 5 ug/mL after 40 mins. It counts as functional.
Data set [14] concerns L5178Y. The data set can be described thus: Induction of apoptosis in human MDR1 gene transfected mouse L5178 Y cells assessed as early apoptosis at 50 ug/mL after 40 mins. It counts as functional.
The test system of data set [15] is L5178Y. Nature of the data set: Induction of apoptosis in human MDR1 gene transfected mouse L5178 Y cells assessed as necrosis at 50 ug/mL after 40 mins. It counts as functional.

In brackets after ≈: the same amount, converted by molar mass.

T1 sequence (P08183 whole entry): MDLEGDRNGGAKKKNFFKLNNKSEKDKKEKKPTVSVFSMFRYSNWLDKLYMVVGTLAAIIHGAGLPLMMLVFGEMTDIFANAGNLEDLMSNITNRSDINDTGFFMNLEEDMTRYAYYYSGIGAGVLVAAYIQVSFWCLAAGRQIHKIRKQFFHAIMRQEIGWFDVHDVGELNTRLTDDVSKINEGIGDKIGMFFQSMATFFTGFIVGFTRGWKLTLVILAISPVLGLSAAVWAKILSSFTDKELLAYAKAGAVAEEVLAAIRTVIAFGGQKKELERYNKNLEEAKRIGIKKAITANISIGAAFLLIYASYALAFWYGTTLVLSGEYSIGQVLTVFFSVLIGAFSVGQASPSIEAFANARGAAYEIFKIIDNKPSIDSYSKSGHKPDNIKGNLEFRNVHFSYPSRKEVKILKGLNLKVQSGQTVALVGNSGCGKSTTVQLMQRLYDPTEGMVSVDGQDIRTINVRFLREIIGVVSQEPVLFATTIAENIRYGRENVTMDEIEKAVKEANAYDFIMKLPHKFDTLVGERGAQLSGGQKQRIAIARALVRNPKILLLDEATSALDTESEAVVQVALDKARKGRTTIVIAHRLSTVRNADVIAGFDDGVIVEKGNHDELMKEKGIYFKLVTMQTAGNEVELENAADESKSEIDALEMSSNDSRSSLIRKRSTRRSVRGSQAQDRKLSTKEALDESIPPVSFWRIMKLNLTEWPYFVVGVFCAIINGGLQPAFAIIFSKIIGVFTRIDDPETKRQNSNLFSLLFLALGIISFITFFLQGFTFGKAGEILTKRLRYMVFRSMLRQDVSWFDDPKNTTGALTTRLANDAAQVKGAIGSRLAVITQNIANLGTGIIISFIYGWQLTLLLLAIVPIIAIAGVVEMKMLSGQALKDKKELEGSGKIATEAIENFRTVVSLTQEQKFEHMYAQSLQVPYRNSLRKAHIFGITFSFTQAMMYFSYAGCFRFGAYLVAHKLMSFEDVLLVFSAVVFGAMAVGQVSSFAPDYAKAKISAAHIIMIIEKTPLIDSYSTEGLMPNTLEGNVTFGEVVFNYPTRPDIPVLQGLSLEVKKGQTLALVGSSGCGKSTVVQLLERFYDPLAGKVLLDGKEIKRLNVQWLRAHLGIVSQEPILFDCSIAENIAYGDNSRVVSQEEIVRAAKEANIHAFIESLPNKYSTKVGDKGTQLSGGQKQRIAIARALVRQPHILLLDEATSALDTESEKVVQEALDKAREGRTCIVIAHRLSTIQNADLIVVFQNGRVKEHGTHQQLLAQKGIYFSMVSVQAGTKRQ

As for `C/C1=C\[C@@H]2[C@H](CC[C@@]3(C)O[C@@H]3C[C@@H](O)[C@@H](COC(=O)c3ccccc3)C[C@H](OC(=O)/C=C/c3ccccc3)C1=O)C2(C)C` [LATILAGASCENES D], the Activity in data set [1] is recorded as 6.83%; in [2], 34.7%; in data set [4] it was 1.54%; in data set [5] it was 2.96%; in data set [7], 12.7%; in data set [8], 67.97%. Moreover, the figures for the Fluorescence intensity in [3] and in [6] were 714 and 685.9, respectively.

Consider `C/C1=C\[C@@H]2[C@H](CC[C@@]3(C)O[C@@H]3C[C@@H](O)[C@@H](CO)C[C@H](OC(=O)/C=C/c3ccccc3)C1=O)C2(C)C` [LATILAGASCENES B], for which the Activity in data set [1] came out at 1.82%; in data set [2], 18.96%; in [4], 0.79%; in [5] it was 1.38%; in [7], 5.87%; in [8], 96.31%. Besides, in data set [9], the IC50 came to 4.58 µg/mL (≈ 9.49 µM).

For the compound `C/C1=C\[C@@H]2[C@H](CC[C@@]3(C)O[C@@H]3C[C@@H](O)[C@@H](C)CC(OC(=O)c3ccccc3)C1=O)C2(C)C` (stereo partly specified) [LATILAGASCENES F], the Fluorescence intensity in data set [3] worked out at 1029.4; in data set [6] it was 212.6.

As for `COc1cccc2c1C(=O)c1c(O)c3c(c(O)c1C2=O)C[C@@](O)(C(=O)CO)C[C@@H]3O[C@H]1C[C@H](N)[C@H](O)[C@H](C)O1` [DOXORUBICIN], the IC50 in [9] was determined as 0.35 µg/mL (≈ 0.644 µM).

Take `CC1(C)[C@@H]2/C=C(\CO)C(=O)[C@@H](OC(=O)/C=C/c3ccccc3)C[C@H](COC(=O)c3ccccc3)[C@H](O)C[C@H]3O[C@]3(C)CC[C@@H]21` [LATILAGASCENES E]: the Fluorescence intensity in data set [3] is 810.8; in data set [6] it was 882.2.

`C/C1=C\[C@@H]2[C@H](CC[C@@]3(C)O[C@@H]3[C@H]3[C@@H](O)[C@@H](C)C[C@]3(OC(=O)/C=C/c3ccccc3)C1=O)C2(C)C` [JOLKINOL B]: the Activity in data set [1] was 0.41%; in data set [2] it was 27%; in [4], 1.16%; in [5], 4.06%; in data set [7], 6.91%; in data set [8], 38.83%. Further, the Fluorescence intensity in [3] came out at 649.3; in data set [6], 449.2.

For `CC(=O)OC[C@H]1C[C@H](OC(=O)/C=C/c2ccccc2)C(=O)/C(C)=C/[C@@H]2[C@H](CC[C@@]3(C)O[C@@H]3C[C@H]1O)C2(C)C` [LATILAGASCENES A], the Activity in [1] amounted to 2.16%; in data set [2] it was 22.7%; in [4], 0.85%; in data set [5] it was 33.88%; in [7], 7.79%; in data set [8], 55.24%.

Consider `CC(=O)OC[C@H]1C[C@H](OC(=O)/C=C/c2ccccc2)C(=O)/C(C)=C/[C@@H]2[C@H](CC[C@@]3(C)O[C@@H]3C[C@H]1OC(C)=O)C2(C)C` [LATILAGASCENES C], for which the Activity in data set [1] was 3.93%; in data set [2], 21.9%; in [4] it was 0.69%; in data set [5], 1.04%; in data set [7], 7.8%; in data set [8], 41.31%.

Turning to `c1ccc2c(c1)Nc1c(ccc3ccccc13)S2`, the Activity is recorded as 16.3% in data set [10]; 65.01% in data set [11]; 98% in data set [12]; 1.72% in data set [13]; 0.02% in data set [14]; 1.81% in [15].

Values taken from ChEMBL document CHEMBL1144490, “Apoptosis induction and modulation of P-glycoprotein mediated multidrug resistance by new macrocyclic lathyrane-type diterpenoids” (Bioorg Med Chem, 2007).
